Assay [1] concerns HT1080 (human fibrosarcoma). In words: SRB Cell Cytotoxicity Assay. It counts as cell-based. Particulars: HT-1080, HT1080, treated for 72h, read-out: Concentration of test compounds at which the cell growth is inhibited by 50 % HT1080. The text has this: (§1) SRB Cell Cytotoxicity Assay is an assay based upon the quantitative staining of cellular proteins by sulforhodamine B (SRB). This assay can be used for high-throughput drug screening (Vichai & Kirkitara, Nature Protocol. 2006, 1, 112). Sulforhodamine B is an anionic aminoxanthene dye that forms an electrostatic complex with the basic amino acid residues of proteins under moderately acid conditions, which provides a sensitive linear response.
(§2) To assess a putative antiproliferative activity of the selected compounds, HT1080 (human fibrosarcoma), U87MG (human glioblastoma astrocytoma) and U2OS (human osteosarcoma) cell lines were treated for 72h, in triplicate, with increasing concentrations of heparanase inhibitors. Inhibition of cell proliferation was then measured by the classical colorimetric SRB Cell Cytotoxicity assay. Absorbance was measured by spectrophotometer at a wavelength of 510 nm and cell proliferation was determined as percent with respect to control cells (cells treated with the vehicle alone). EC50 values were then determined by GraphPad Prism.

For assay [2], the system named is U87MG (human glioblastoma astrocytoma). Kind of assay: SRB Cell Cytotoxicity Assay. Type of assay: cell-based. Particulars: U-87 MG, treated for 72h, read-out: Concentration of test compounds at which the cell growth is inhibited by 50 % U87MG.
Description: as §1, §2

The test system of assay [3] is U2OS (human osteosarcoma). Kind of assay: SRB Cell Cytotoxicity Assay. Type of assay: cell-based. Particulars: treated for 72h, read-out: Concentration of test compounds at which the cell growth is inhibited by 50 % U2OS.
Description: as §1, §2

The subject of another assay is HPSE-1. Kind of assay: Real-Time Quantitative PCR of pro-angiogenic genes in HT1080 cells. It counts as cell-based, human. Particulars: 24 h, Conc 10.0 uM.
The next assay has as its system U87MG. In words: Matrigel cell invasion assay. It counts as cell-based, human. The settings on record: Homo sapiens, U-87 MG, Conc. 10 µM.

Description for HPSE-1: To evaluate the effect of heparanase inhibitors on the tumor transcription of genes encoding for proangiogenic factors, such as FGF1/2, VEGF, MMP-9, HSPE-1, the relative mRNA levels were analyzed by quantitative Real-Time Quantitative PCR. To perform the assay, HT1080 (human fibrosarcoma) cells were cultured in complete medium containing 10%FCS (fetal calf serum). Cells were plated in 24-well plates and treated at fixed concentration (i.e., highest non-toxic concentration) of test compounds. After 24 h, cells were detached, collected and total RNA extracted by RNeasy Mini Kit (QIAGEN). Following reverse transcription step, FGF1/2, VEGF, MMP-9, HSPE-1 mRNA levels, were quantified by qPCR using the advanced Universal SYBR Green Supermix (Bio Rad) and ABI PRISM 7900HT Thermal Cycler System (Perkin Elmer), according to the manufacturer's instructions. […] Relative levels of RNA were calculated using the ddCt method. Standard curve and sample data were run in duplicate.

Take `COc1cc(N=Nc2cc(S(=O)(=O)O)cc3cc(S(=O)(=O)O)cc(O)c23)c(C)cc1NC(=O)Nc1cc(C)c(N=Nc2cc(S(=O)(=O)O)cc3cc(S(=O)(=O)O)cc(O)c23)cc1OC` [SST0597]: the EC50 in assay [1], in assay [2] and in assay [3] was greater than 10 µM throughout. Moreover, in the assay with HPSE-1, the “Gene Expression (% mRNA vs. control) HPSE-1” value is “∼ 100%”. The inhibition at 10 µM in the assay on U87MG was less than 50%.

(Values after patent publication EP3381906A1, “COMPOUNDS FOR USE AS HEPARANASE INHIBITORS” (Leadiant Biosciences SA, priority 2017, dated 2018).)
